Where two headings read alike, the source gives them in different places.
What was measured:
[1] = MTT cytotoxicity (PDT and dark), HT29; assay type: cell-based, Human; conditions: human, HT-29 cells, no illumination, MTT after 24 h
Excerpt: (§1) B16F10 (KCLB80008), MIA PaCa-2 (KCLB21420), PANC-1 (KCLB21469), HT-29 (KCLB30038), AsPC-1 (KCLB21682), and Raw 264.7 (KCLB40071) cells were procured from the Korean Cell Line Bank (KCLB, Seoul, Republic of Korea). AsPC-1 and RAW264.7 were thawed and maintained in RPMI-1640 media (Life Technologies corporation, Carlsbad, CA, USA) supplemented with 10% fetal bovine serum (Life Technologies corporation, USA) and 1% penicillin and streptomycin (Life Technologies corporation, USA), while MIA PaCa-2, PANC-1, HT-29, and B16F10 cell lines were cultured in DMEM (Life technologies corporation, USA) containing 10% fetal bovine serum and 1% penicillin and streptomycin. All the cells were cultured at 37 °C in a 5% CO2 incubator.
(§2) After seeding B16F10 or MIA PaCa-2 at a density of 5 × 10^3 cells/well and PANC-1, HT-29, or AsPC-1 at a density of 1 × 10^4 cells/well in 96-well plates, the cells were incubated overnight at 37 °C in a CO2 incubator. The cells were exposed to different doses of either chlorin e6 or rhodin g7 7^1-ethyl ester (0, 2.5, 5, 10, 20, 40, and 80 µM) for 3 h. After the incubation, the cells were either subjected to a 660 nm laser with a power density of 50 mW (0.5 J/cm^2) or not and were further incubated for 24 h at 37 °C. Moreover, the MTT assay was used to analyze the cell viability. The absorbance values of 540 nm were then measured using a microplate reader (Multiskan GO, Thermo Fisher Scientific, Oy, Ratastie 2, FI-01620 Vantaa, Finland).

[2] = system: HT29; experiment: MTT cytotoxicity (PDT and dark), HT29; assay type: cell-based, Human; conditions: Homo sapiens, HT-29, light or radiation study, 3 h exposure, 660 nm laser 0.5 J/cm^2, MTT after 24 h
Excerpt: as §1, §2

[3] = MTT cytotoxicity, statements over all cell lines of the panel; assay type: cell-based; conditions: mouse (B16F10), human (MIA PaCa-2, PANC-1, HT-29, AsPC-1), B16F10, MIA PaCa-2, PANC-1, HT-29 and AsPC-1 cells, read-out: cellular viability
Excerpt: as §1
as §2, with “The cells were exposed to different doses of either chlorin e6 or rhodin g7 7^1-ethyl ester (0, 2.5, 5, 10, 20, 40, and 80 µM) for 3 h.” left out

[4] = system: B16F10, MIA PaCa-2, PANC-1, HT-29, AsPC-1; experiment: as above; assay type: cell-based
Excerpt: as §1
as §2, with “The cells were exposed to different doses of either chlorin e6 or rhodin g7 7^1-ethyl ester (0, 2.5, 5, 10, 20, 40, and 80 µM) for 3 h.” left out

[5] = system: MIA PaCa-2 cells; experiment: Cellular uptake (plate reader and FOBI), MIA PaCa-2; assay type: cell-based, Human; conditions: 3 h; for fluorescence intensity of treated cells compared to control (uptake): MIA PaCa-2, 100 μΜ
Method: (§3) A quantitly of 5 × 10^5 of MIA PaCa-2 and 2 × 10^5 of BV2 cells per well were seeded in a 6-well plate and were treated with or without chlorin e6 or rhodin g7 7^1-ethyl ester (10 and 100 μΜ). After 3 h, the cells were harvested and washed twice with 1 × phosphate buffered saline (DPBS) to remove the remaining chlorin e6 or rhodin g7 7^1-ethyl ester from the culture media and cell surfaces. The cells from each well were resuspended in 1 mL of 1 × DPBS and measured using FOBI and a plate reader. chlorin e6 or rhodin g7 7^1-ethyl ester-treated cells were divided into triplicate wells of a black-walled 96-well plate, each containing 100 µL. The measurement was taken immediately after aliquoting using a Spark Multimode Microplate Reader (Tecan Trading AG, Männedorf, Switzerland) for spectroscopy. The fluorescence was measured using excitation and emission peaks of 405 nm and 500–800 nm. For the FOBI analysis, 700 µL of chlorin e6 or rhodin g7 7^1-ethyl ester-treated cells was added to the e-tubes, and bioimaging was performed immediately using the fluorescence-labeled organism bioimaging instrument (FOBI) system (Cellgentek, Daejeon, Republic of Korea). Each image was exposed for 0.3 s, with a 405 nm wavelength LED, and an emmission light of 502 nm. The results were further quantitatively measured using the “NEOimage FOBI” software.

[6] = system: BV2 cells; experiment: Cellular uptake (plate reader and FOBI), BV2; assay type: cell-based; conditions: 3 h; for fluorescence intensity of treated cells compared to control (uptake): BV2, 100 μΜ
Method: as §3

[7] = system: ICR mice; design: method as in PMID 30609768; conditions: chlorin e6, greatly declined at 24 h; cited from earlier work
[8] = system: ICR mice; experiment: Biodistribution, ex vivo organ fluorescence; assay type: in vivo; conditions: 2.5 mg/kg intravenous
Method: The animal study was approved by the Institutional Animal Care and Use Committee of the Dongsung Cancer Center under protocol IACUC # ds0022010107-2. The experiments were carried out in compliance with the ARRIVE guidelines. Male ICR mice (4 weeks old, OrientBio, Seongnam City, Republic of Korea) were used for the biodistribution study. The biodistribution analysis for rhodin g7 7^1-ethyl ester was calculated using tissue fluorescence. ICR mice (n = 7) were injected with or without rhodin g7 7^1-ethyl ester (2.5 mg/kg) intravenously. After the administration of rhodin g7 7^1-ethyl ester for 0, 24, 48, 72, 96, and 120 h, the mice were sacrificed, and their organs (kidney, spleen, heart, lungs, liver, skin, and pancreas) were resected. Fluorescence imaging was used to determine the ex vivo organ distributions of rhodin g7 7^1-ethyl ester utilizing the FOBI imaging system (Neo-Science, Suwon, Republic of Korea). For the rhodin g7 7^1-ethyl ester extraction, the organ tissues were then mixed with lysis buffer, homogenized in a tissue homogenizer, and centrifuged at 9000 rpm for 15 min. The rhodin g7 7^1-ethyl ester content in the supernatant was then evaluated using a Spark Multimode Microplate Reader (Tecan Trading AG, Männedorf, Switzerland) spectrophotometrically at 660 nm. The fluorescence intensity was adjusted to the tissue weight.

[9] = complete absence of illumination, read-out: IC50 values dark toxicity, range over cell lines
[10] = light or radiation study, PDT, light dose 0.5 J/cm^2, five cancer cell lines, read-out: IC50 values post illumination, range over cancer cell lines

C=Cc1c(C)c2cc3nc(c(CC(=O)O)c4[nH]c(cc5nc(cc1[nH]2)C(C)=C5CC)c(C)c4C(=O)O)[C@@H](CCC(=O)O)[C@@H]3C [chlorin e6]
IC50 [1]: 543 µM
IC50 [2]: 28.1 µM
viability ([3]; chlorin e6 dark, concentrations as high as 169.2 µM): ≥ 90%
viability ([3]; chlorin e6 dark, concentrations up to 729.4 µM, all cell lines): < 10%
cellular viability ([4]; chlorin e6-PDT, concentrations greater than 59.8 µM, all cell lines): 10%
viability at 7.8 µM ([4]; chlorin e6-PDT, dose of 7.8 µM, all cell lines, vs vehicle-treated control): ≥ 90%
IC50 [4, 9]: 250 to 564 µM
IC50 [4, 10]: 17.6 to 33.8 µM
fluorescence intensity of treated cells compared to control (uptake) [5]: significant increase in fluorescence intensity
fluorescence intensity of treated cells compared to control (uptake) [6]: significant increase in fluorescence intensity
time of maximum fluorescence intensity post injection [7]: 0 h

C=Cc1c(C)c2cc3nc(c(CC(=O)O)c4[nH]c(cc5nc(cc1[nH]2)C(C(=O)OCC)=C5CC)c(C)c4C(=O)O)[C@@H](CCC(=O)O)[C@@H]3C [rhodin g7 7^1-ethyl ester]
IC50 [1]: 223 µM
IC50 [2]: 30.1 µM
viability ([3]; rhodin g7 7^1-ethyl ester dark, concentrations as high as 37.4 µM): ≥ 90%
viability ([3]; rhodin g7 7^1-ethyl ester dark, doses as high as 660 µM, all cell lines): < 10%
IC50 [4, 9]: 163 to 389 µM
higher cytotoxicity compared to chlorin e6 ([4]; laser 0.5 J/cm^2, majority of the cancer cell lines): 2 fold
IC50 [4, 10]: 8.4 to 49.1 µM
cellular viability ([4]; rhodin g7 7^1-ethyl ester PDT, concentrations higher than 53.7 µM, all cell lines): 10%
fluorescence intensity of treated cells compared to control (uptake) [5]: significant increase in fluorescence intensity
fluorescence intensity relative to chlorin e6 (uptake) ([5]; MIA PaCa-2, FOBI system, 10 μΜ): 1.02 times
fluorescence intensity relative to chlorin e6 (uptake) ([5]; MIA PaCa-2, FOBI system, 100 μΜ): 1.3 times
fluorescence intensity relative to chlorin e6 (uptake) ([5]; MIA PaCa-2, plate reader, 10 μΜ): 3 times
fluorescence intensity relative to chlorin e6 (uptake) ([5]; MIA PaCa-2, plate reader, 100 μΜ): 1.4 times
fluorescence intensity of treated cells compared to control (uptake) [6]: significant increase in fluorescence intensity
fluorescence intensity relative to chlorin e6 (uptake) ([6]; BV2, FOBI system, 10 μΜ): 1.1 times
fluorescence intensity relative to chlorin e6 (uptake) ([6]; BV2, FOBI system, 100 μΜ): 1.4 times
fluorescence intensity relative to chlorin e6 (uptake) ([6]; BV2, plate reader, 10 μΜ): 2.2 times
fluorescence intensity relative to chlorin e6 (uptake) ([6]; BV2, plate reader, 100 μΜ): 2 times
time of peak fluorescence intensity post injection, all organs ([8]; 0-120 h): 0 h
organ with greatest signal intensity (predominant accumulation) ([8]; ex vivo FLI of excised organs): liver
